Source: patent publication US7994185B2, “Benzene sulfonamide thiazole and oxazole compounds” (Glaxo Smith Kline LLC, priority 2008, dated 2011)
Like-named read-outs stand apart in the source and are kept apart here.

Experiments:
[1] = target: T1, BRAFV600E full-length (amino acids 2-766) (Homo sapiens, UniProt P15056, V600E); assay: B-Raf Accelerated MEK ATPase assay (BRAMA); format: biochemical; conditions: categorized
T1 construct: His6-tagged BRAFV600E full-length (amino acids 2-766); His6; made in house; host or cells: baculovirus expression system (insect cells)
T1 sequence (P15056 2-766 V600E): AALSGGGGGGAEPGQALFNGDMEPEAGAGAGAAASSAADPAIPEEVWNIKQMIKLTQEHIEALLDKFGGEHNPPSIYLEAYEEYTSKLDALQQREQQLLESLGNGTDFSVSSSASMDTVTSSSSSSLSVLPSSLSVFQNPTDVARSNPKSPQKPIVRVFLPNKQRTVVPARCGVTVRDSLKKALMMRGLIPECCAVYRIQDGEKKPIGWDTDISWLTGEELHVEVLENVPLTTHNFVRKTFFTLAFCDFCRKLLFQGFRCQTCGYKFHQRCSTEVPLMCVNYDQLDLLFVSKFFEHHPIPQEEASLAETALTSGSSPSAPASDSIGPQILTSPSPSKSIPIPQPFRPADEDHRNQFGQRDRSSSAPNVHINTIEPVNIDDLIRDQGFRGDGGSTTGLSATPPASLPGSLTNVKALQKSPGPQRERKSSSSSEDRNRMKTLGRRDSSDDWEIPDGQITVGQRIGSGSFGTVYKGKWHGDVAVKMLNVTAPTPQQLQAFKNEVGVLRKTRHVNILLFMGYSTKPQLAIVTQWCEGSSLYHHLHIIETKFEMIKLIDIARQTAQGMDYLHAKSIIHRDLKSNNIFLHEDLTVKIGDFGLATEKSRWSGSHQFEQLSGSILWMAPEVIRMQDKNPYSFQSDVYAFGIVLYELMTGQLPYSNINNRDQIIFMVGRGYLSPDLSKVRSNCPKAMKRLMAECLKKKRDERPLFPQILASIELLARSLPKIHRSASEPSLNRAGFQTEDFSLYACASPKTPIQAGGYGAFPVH
Procedure: Compounds of the present invention were tested for B-Raf protein serine kinase inhibitory activity in a B-Raf Accelerated MEK ATPase assay (BRAMA). […] The BRAMA assay is a high sensitivity assay which measures an intrinsic MEK-mediated ATP hydrolysis uncoupled from downstream ERK phosphorylation by coupling the formation of ADP to NADH oxidation through the enzymes pyruvate kinase and lactate dehydrogenase. When ADP production is initiated by addition of catalytic amounts of an activated Raf enzyme and non-phosphorylated MEK, one observes robust ADP production concomitant with Raf-mediated phosphorylation of MEK. The method is disclosed in: C. Rominger, M. Schaber, E. May. Assay for B-Raf Activity Based on Intrinsic MEK ATPase Activity.

[2] = tested on: Human melanoma cancer cells (SK-MEL-28); assay: Cell growth inhibition assay (CellTiter-Glo), SK-MEL-28; format: cell-based
[3] = tested on: Human colon tumor cells (Colo205); assay: Cell growth inhibition assay (CellTiter-Glo), Colo205; format: cell-based
Procedure: Human colon tumor cells (Colo205) were cultured in RPMI (Mediatech 50-020-PB) containing 10% FBS and 1% penicillin-streptomycin.
The next day, compounds were diluted as follow: For 96-well assays, 13.5 μL of compound in DMSO were diluted using nine (9) serial 1:3 dilutions of 4.5 μL in 9 μL of DMSO. Medium (270 μL/well of RPMI with 10% FBS and 1% penicillin-streptomycin) was added to the plates. Aliquots (7 μL) were added to cells in the final assay giving a final DMSO concentration of 0.2%. For 384-well assays, 15 μL of compound in DMSO were diluted using nine (9) serial 1:3 dilutions of 5 μL in 10 μL of DMSO, followed by a further dilution of 5 μL of compound with 95 μL of medium, of which 2 μL were added to cells in the final assay giving a final DMSO concentration of 0.2%. Cells were incubated at 37° C., 5% CO2 for 3 days.
Total ATP was measured (as a surrogate estimate of cell number) using CellTiter-Glo® reagent (Promega G7571). Briefly, plates were removed from the incubator and allowed to equilibrate to room temperature for 30 minutes. CellTiter-Glo® (25 μL or 55 μL for 384-well or 96-well assays, respectively) reagent was added to each well and plates were shaken on an orbital plate shaker for 2 minutes. Plates were incubated without shaking for a further 30 minutes and read on an LJL Analyst GT reader in luminometer mode with an integration time of 0.5 seconds per well. Percent inhibition of cell growth was calculated relative to DMSO vehicle-treated control wells.

[4] = B-Raf Activity, Table 1a, highest pIC50 for the one or more runs
[5] = B-Raf pIC50, Table 1b, later runs, average pIC50 for the one or more runs
[6] = SK-MEL-28, 72 h, Table 3a, 3 days incubation, read-out: Activity in SK-MEL-28 Tumor Cells
[7] = SK-MEL-28, Table 3b, later runs, average for the one or more runs, categorized, read-out: IC50 for SK-MEL-28
[8] = COLO 205, 72 h, Table 2a, 3 days incubation, read-out: Activity in Colo205 Tumor Cells
[9] = COLO 205, Table 2b, later runs, average for the one or more runs, categorized, read-out: IC50 for Colo205
[10] = Table 1b, later runs, average pIC50 for the one or more runs, read-out: B-Raf pIC50 (converted)

Structure (SMILES) | IC50 [1, 4] [µM] | IC50 [1, 5] [µM] | IC50 [2, 6] [µM] | IC50 [2, 7] [µM] | IC50 [3, 8] [µM] | IC50 [3, 9] [µM] | IC50 [1, 10] [µM]
CC(C)(C)c1nc(-c2cccc(NS(=O)(=O)c3c(F)cccc3F)c2)c(-c2ccnc(NCCS(C)(=O)=O)n2)s1 [Example 2, N-{3-[2-(1,1-Dimethylethyl)-5-(2-{[2-(methylsulfonyl)ethyl]amino}-4-pyrimidinyl)-1,3-thiazol-4-yl]phenyl}-2,6-difluorobenzenesulfonamide] | < 0.1 | ≤ 0.00316 | < 0.1 | < 0.1 | < 0.1 | < 0.1 | 
CC(C)CNc1nccc(-c2sc(C(C)(C)C)nc2-c2cccc(NS(=O)(=O)c3cc(F)ccc3F)c2)n1 [Example 3, N-[3-(2-(1,1-Dimethylethyl)-5-{2-[(2-methylpropyl)amino]-4-pyrimidinyl}-1,3-thiazol-4-yl)phenyl]-2,5-difluorobenzenesulfonamide] | < 0.1 |  | < 0.1 | < 0.1 | < 0.1 | < 0.1 | 0.00316 to 0.0316
CCOCCNc1nccc(-c2sc(C(C)C)nc2-c2ccc(F)c(NS(=O)(=O)c3c(F)cccc3F)c2)n1 [Example 4, N-{5-[5-(2-{[2-(Ethyloxy)ethyl]amino}-4-pyrimidinyl)-2-(1-methylethyl)-1,3-thiazol-4-yl]-2-fluorophenyl}-2,6-difluorobenzenesulfonamide] | < 0.1 | 0.0316 to 1 | 0.1 to 1 | 0.1 to 1 | 0.1 to 1 | 1 to 10 | 
CC(C)c1nc(-c2ccc(F)c(NS(=O)(=O)c3c(F)cccc3F)c2)c(-c2ccnc(NCC3CCCO3)n2)s1 (stereo not drawn) [Example 5, 2,6-Difluoro-N-[2-fluoro-5-(2-(1-methylethyl)-5-{2-[(tetrahydro-2-furanylmethyl)amino]-4-pyrimidinyl}-1,3-thiazol-4-yl)phenyl]benzenesulfonamide] | 0.1 to 1 | 0.0316 to 1 | 0.1 to 1 | 0.1 to 1 | 0.1 to 1 | 1 to 10 | 
CC(C)c1nc(-c2ccc(F)c(NS(=O)(=O)c3c(F)cccc3F)c2)c(-c2ccnc(NCC3CC3)n2)s1 [Example 6, N-{5-[5-{2-[(Cyclopropylmethyl)amino]-4-pyrimidinyl}-2-(1-methylethyl)-1,3-thiazol-4-yl]-2-fluorophenyl}-2,6-difluorobenzenesulfonamide] | < 0.1 | 0.0316 to 1 | > 1 | 1 to 10 | > 1 | 1 to 10 | 
CC(C)c1nc(-c2ccc(F)c(NS(=O)(=O)c3c(F)cccc3F)c2)c(-c2ccnc(NCCCN3CCOCC3)n2)s1 [Example 7, 2,6-Difluoro-N-{2-fluoro-5-[2-(1-methylethyl)-5-(2-{[3-(4-morpholinyl)propyl]amino}-4-pyrimidinyl)-1,3-thiazol-4-yl]phenyl}benzenesulfonamide] | 0.1 to 1 | 0.0316 to 1 | > 1 | 1 to 10 | > 1 | 1 to 10 | 
CCNc1nccc(-c2sc(C(C)C)nc2-c2ccc(F)c(NS(=O)(=O)c3c(F)cccc3F)c2)n1 [Example 9, N-{5-[5-[2-(Ethylamino)-4-pyrimidinyl]-2-(1-methylethyl)-1,3-thiazol-4-yl]-2-fluorophenyl}-2,6-difluorobenzenesulfonamide] | 0.1 to 1 | 0.0316 to 1 | > 1 | 1 to 10 | > 1 | 1 to 10 | 
CC(C)(C)c1nc(-c2cccc(NS(=O)(=O)c3c(F)cccc3F)c2F)c(-c2ccnc(NCCCS(C)(=O)=O)n2)s1 [Example 12, N-{3-[2-(1,1-Dimethylethyl)-5-(2-{[3-(methylsulfonyl)propyl]amino}-4-pyrimidinyl)-1,3-thiazol-4-yl]-2-fluorophenyl}-2,6-difluorobenzenesulfonamide] | < 0.1 | ≤ 0.00316 | < 0.1 | < 0.1 | < 0.1 | < 0.1 | 
CC(C)(C)c1nc(-c2cccc(NS(=O)(=O)c3c(F)cccc3F)c2F)c(-c2ccnc(NC3CCS(=O)(=O)CC3)n2)s1 [Example 13, N-[3-(2-(1,1-Dimethylethyl)-5-{2-[(1,1-dioxidotetrahydro-2H-thiopyran-4-yl)amino]-4-pyrimidinyl}-1,3-thiazol-4-yl)-2-fluorophenyl]-2,6-difluorobenzenesulfonamide] | < 0.1 | ≤ 0.00316 | < 0.1 | < 0.1 | < 0.1 | < 0.1 | 
CN(C)c1nc(-c2cccc(NS(=O)(=O)c3c(F)cccc3F)c2)c(-c2ccnc(N)n2)s1 [Example 112, N-{3-[5-(2-Amino-4-pyrimidinyl)-2-(dimethylamino)-1,3-thiazol-4-yl]phenyl}-2,6-difluorobenzenesulfonamide] | 0.1 to 1 | 0.0316 to 1 |  |  |  | 1 to 10 | 
Nc1nccc(-c2sc(C3CCOCC3)nc2-c2cccc(NS(=O)(=O)c3ccoc3)c2Cl)n1 [Example 265, N-{3-[5-(2-amino-4-pyrimidinyl)-2-(tetrahydro-2H-pyran-4-yl)-1,3-thiazol-4-yl]-2-chlorophenyl}-3-furansulfonamide] |  | ≤ 0.00316 |  | < 0.1 |  |  | 
Cc1nccc(-c2sc(C(C)(C)CO)nc2-c2cccc(NS(=O)(=O)c3c(F)cccc3F)c2F)n1 [Example 316, 2,6-difluoro-N-{2-fluoro-3-[2-(2-hydroxy-1,1-dimethylethyl)-5-(2-methyl-4-pyrimidinyl)-1,3-thiazol-4-yl]phenyl}benzenesulfonamide] |  |  |  |  |  |  | 0.00316 to 0.0316
CC1(c2nc(-c3cccc(NS(=O)(=O)c4ccoc4)c3F)c(-c3ccnc(N)n3)s2)CCNCC1 [Example 319, N-{3-[5-(2-amino-4-pyrimidinyl)-2-(4-methyl-4-piperidinyl)-1,3-thiazol-4-yl]-2-fluorophenyl}-3-furansulfonamide] |  | ≤ 0.00316 |  |  |  |  | 
Cc1nccc(-c2sc(C3(C)CCNCC3)nc2-c2cccc(NS(=O)(=O)c3ccoc3)c2F)n1 [Example 320, N-{2-fluoro-3-[2-(4-methyl-4-piperidinyl)-5-(2-methyl-4-pyrimidinyl)-1,3-thiazol-4-yl]phenyl}-3-furansulfonamide] |  | ≤ 0.00316 |  |  |  |  | 
Cc1nccc(-c2sc(C3CCNCC3)nc2-c2cccc(NS(=O)(=O)c3c(F)cccc3F)c2F)n1 [Example 321, 2,6-difluoro-N-{2-fluoro-3-[5-(2-methyl-4-pyrimidinyl)-2-(4-piperidinyl)-1,3-thiazol-4-yl]phenyl}benzenesulfonamide] |  |  |  |  |  |  | 0.00316 to 0.0316
Nc1nccc(-c2sc(C3CCNCC3)nc2-c2cccc(NS(=O)(=O)c3c(F)cccc3F)c2F)n1 [Example 322, N-{3-[5-(2-amino-4-pyrimidinyl)-2-(4-piperidinyl)-1,3-thiazol-4-yl]-2-fluorophenyl}-2,6-difluorobenzenesulfonamide] |  | ≤ 0.00316 |  |  |  |  | 
Cc1nccc(-c2sc(C3CCNCC3)nc2-c2cccc(NS(=O)(=O)c3ccoc3)c2F)n1 [Example 323, N-{2-fluoro-3-[5-(2-methyl-4-pyrimidinyl)-2-(4-piperidinyl)-1,3-thiazol-4-yl]phenyl}-3-furansulfonamide] |  |  |  |  |  |  | 0.00316 to 0.0316
Nc1nccc(-c2sc(C3CCNCC3)nc2-c2cccc(NS(=O)(=O)c3ccoc3)c2F)n1 [Example 324, N-{3-[5-(2-amino-4-pyrimidinyl)-2-(4-piperidinyl)-1,3-thiazol-4-yl]-2-fluorophenyl}-3-furansulfonamide] |  | ≤ 0.00316 |  |  |  |  | 
